Data published in ChEMBL document CHEMBL6134834, “Aromatic nitroolefin with inhibition efficacy in triple-negative breast cancer cells by dual targeting RXRα and tubulins” (Eur J Med Chem, 2025).
pKd: −log10 of the molar value.

Assay: Binding affinity to mouse brain tubulin assessed as dissociation constant by SPR analysis

- pKd: 4.09
SMILES: O=[N+]([O-])CCc1cccc2ccccc12
